Measured values published in patent US9018237B2, “Methods for improved wound closure employing olivamine and endothelial cells” (priority 2009, dated 2015).

Test system: human microvascular endothelial cells
Assay: in vitro model of wound healing (cell migration), time for 50% of wound to heal
Format: cell-based
Description: The time for wounds to heal by 50% under the various treatment conditions was quantified.

SMILES: OCCc1ccc(O)c(O)c1 [Hydroxytyrosol]
- less effective in wound healing than the present art (hydroxytyrosol alone versus the combination (Table 1)): 30%

SMILES: NCCS(=O)(=O)O [L-Taurine]
- Time for 50% wound to heal (Table 9, single ingredients, Present Art and Present Art without one ingredient): 22.5 h

SMILES: CC(=O)N[C@@H](CS)C(=O)O [N-acetylcysteine, reference compound]
- effect on time and extent of wound healing (in words) (compared to untreated or to the additive effect of the compounds): increased the time to 50% healing compared to untreated
